{"source": "ChEMBL document CHEMBL1201862", "about": "“PubChem BioAssay data set” (2004)", "experiment_in_all_cases": "NCI-60 cell line screen, 48 h", "key": {"TK-10": {"tested_on": "TK-10"}, "SF-268": {"tested_on": "SF-268"}, "OVCAR-5": {"tested_on": "OVCAR-5"}, "SK-OV-3": {"tested_on": "SK-OV-3"}, "DLD-1": {"tested_on": "DLD-1"}, "A549": {"tested_on": "A549"}, "KM-20L2": {"tested_on": "KM-20L2"}, "SNB-19": {"tested_on": "SNB-19"}, "SF-295": {"tested_on": "SF-295"}, "NCI-H23": {"tested_on": "NCI-H23"}, "UACC-62": {"tested_on": "UACC-62"}, "SN12C": {"tested_on": "SN12C"}, "M14": {"tested_on": "M14"}, "SF-539": {"tested_on": "SF-539"}, "ACHN": {"tested_on": "ACHN"}, "EKVX": {"tested_on": "EKVX"}, "OVCAR-8": {"tested_on": "OVCAR-8"}, "HCT-15": {"tested_on": "HCT-15"}, "LOX IMVI": {"tested_on": "LOX IMVI"}, "SW-620": {"tested_on": "SW-620"}, "UACC-257": {"tested_on": "UACC-257"}, "NCI-H460": {"tested_on": "NCI-H460"}, "UO-31": {"tested_on": "UO-31"}, "M19-MEL": {"tested_on": "M19-MEL"}, "KM12": {"tested_on": "KM12"}, "U-251": {"tested_on": "U-251"}, "MDA-MB-231": {"tested_on": "MDA-MB-231"}, "NCI-H522": {"tested_on": "NCI-H522"}, "SR": {"tested_on": "SR"}, "HCT-116": {"tested_on": "HCT-116"}, "CCRF-CEM": {"tested_on": "CCRF-CEM"}, "HCC 2998": {"tested_on": "HCC 2998"}, "PC-3": {"tested_on": "PC-3"}, "MOLT-4": {"tested_on": "MOLT-4"}, "HOP-62": {"tested_on": "HOP-62"}, "OVCAR-4": {"tested_on": "OVCAR-4"}, "K562": {"tested_on": "K562"}, "DU-145": {"tested_on": "DU-145"}, "OVCAR-3": {"tested_on": "OVCAR-3"}, "A498": {"tested_on": "A498"}, "SNB-75": {"tested_on": "SNB-75"}, "CAKI-1": {"tested_on": "CAKI-1"}, "MDA-MB-435": {"tested_on": "MDA-MB-435"}, "SK-MEL-5": {"tested_on": "SK-MEL-5"}, "MCF7": {"tested_on": "MCF7"}, "T47D": {"tested_on": "T47D"}, "RXF 393": {"tested_on": "RXF 393"}, "RPMI-8226": {"tested_on": "RPMI-8226"}, "HL-60": {"tested_on": "HL-60"}, "BT-549": {"tested_on": "BT-549"}, "NCI/ADR-RES": {"tested_on": "NCI/ADR-RES"}, "Hs-578T": {"tested_on": "Hs-578T"}, "HOP-92": {"tested_on": "HOP-92"}, "NCI-H226": {"tested_on": "NCI-H226"}, "786-0": {"tested_on": "786-0"}, "HT-29": {"tested_on": "HT-29"}, "COLO 205": {"tested_on": "COLO 205"}, "IGROV-1": {"tested_on": "IGROV-1"}, "MDA-N": {"tested_on": "MDA-N"}, "SK-MEL-2": {"tested_on": "SK-MEL-2"}, "SK-MEL-28": {"tested_on": "SK-MEL-28"}, "Malme-3M": {"tested_on": "Malme-3M"}}, "note": "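Test compounds were applied to cells in 96-well plates for 48 hours at 5 doses. At the GI50, growth is halved.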 Activity calls are given as the source filed them. Cut-off read from the data, not from the text of the source: active = GI50 up to about 1.1 µM and inactive = higher."}
{"smiles": "C/C(=N\\NC(=O)c1cccnc1)c1cccc(/C(C)=N/NC(=O)c2cccnc2)n1", "values": [{"measurement": "GI50", "setting": "TK-10", "result": "4.67 µM (inactive)"}, {"measurement": "GI50", "setting": "SF-268", "result": "0.867 µM (active)"}, {"measurement": "GI50", "setting": "OVCAR-5", "result": "2.08 µM (inactive)"}, {"measurement": "GI50", "setting": "SK-OV-3", "result": "4.14 µM (inactive)"}, {"measurement": "GI50", "setting": "DLD-1", "result": "1.95 µM (inactive)"}, {"measurement": "GI50", "setting": "A549", "result": "2.99 µM (inactive)"}, {"measurement": "GI50", "setting": "KM-20L2", "result": "2.21 µM (inactive)"}, {"measurement": "GI50", "setting": "SNB-19", "result": "3.56 µM (inactive)"}, {"measurement": "GI50", "setting": "SF-295", "result": "4.15 µM (inactive)"}, {"measurement": "GI50", "setting": "NCI-H23", "result": "7.4 µM (inactive)"}, {"measurement": "GI50", "setting": "UACC-62", "result": "2.04 µM (inactive)"}, {"measurement": "GI50", "setting": "SN12C", "result": "4.81 µM (inactive)"}, {"measurement": "GI50", "setting": "M14", "result": "2.85 µM (inactive)"}, {"measurement": "GI50", "setting": "SF-539", "result": "2.36 µM (inactive)"}, {"measurement": "GI50", "setting": "ACHN", "result": "1.48 µM (inactive)"}, {"measurement": "GI50", "setting": "EKVX", "result": "3.42 µM (inactive)"}, {"measurement": "GI50", "setting": "OVCAR-8", "result": "2.43 µM (inactive)"}, {"measurement": "GI50", "setting": "HCT-15", "result": 3.99, "unit": "µM"}, {"measurement": "GI50", "setting": "LOX IMVI", "result": "2 µM (inactive)"}, {"measurement": "GI50", "setting": "SW-620", "result": "2.78 µM (inactive)"}, {"measurement": "GI50", "setting": "UACC-257", "result": "3.06 µM (inactive)"}, {"measurement": "GI50", "setting": "NCI-H460", "result": "3.41 µM (inactive)"}, {"measurement": "GI50", "setting": "UO-31", "result": "3.81 µM (inactive)"}, {"measurement": "GI50", "setting": "M19-MEL", "result": "13.2 µM (inactive)"}, {"measurement": "GI50", "setting": "KM12", "result": "4.85 µM (inactive)"}, {"measurement": "GI50", "setting": "U-251", "result": "2.06 µM (inactive)"}]}
{"smiles": "CC(C)=CCC[C@@H](C)C1=C(Nc2ccccc2F)C(=O)C(C)=C(O)C1=O", "values": [{"measurement": "GI50", "setting": "TK-10", "result": "5.82 µM (inactive)"}, {"measurement": "GI50", "setting": "MDA-MB-231", "result": "4.53 µM (inactive)"}, {"measurement": "GI50", "setting": "NCI-H522", "result": "4.18 µM (inactive)"}, {"measurement": "GI50", "setting": "SF-268", "result": "5.47 µM (inactive)"}, {"measurement": "GI50", "setting": "OVCAR-5", "result": "36.8 µM (inactive)"}, {"measurement": "GI50", "setting": "SR", "result": "11 µM (inactive)"}, {"measurement": "GI50", "setting": "HCT-116", "result": "4.58 µM (inactive)"}, {"measurement": "GI50", "setting": "CCRF-CEM", "result": "0.869 µM (active)"}, {"measurement": "GI50", "setting": "SK-OV-3", "result": "6.47 µM (inactive)"}, {"measurement": "GI50", "setting": "HCC 2998", "result": "7.59 µM (inactive)"}, {"measurement": "GI50", "setting": "A549", "result": "4.09 µM (inactive)"}, {"measurement": "GI50", "setting": "PC-3", "result": "8.61 µM (inactive)"}, {"measurement": "GI50", "setting": "SNB-19", "result": "4.42 µM (inactive)"}, {"measurement": "GI50", "setting": "MOLT-4", "result": "5.46 µM (inactive)"}, {"measurement": "GI50", "setting": "HOP-62", "result": "9.98 µM (inactive)"}, {"measurement": "GI50", "setting": "SF-295", "result": "3.65 µM (inactive)"}, {"measurement": "GI50", "setting": "NCI-H23", "result": "3.66 µM (inactive)"}, {"measurement": "GI50", "setting": "OVCAR-4", "result": "9.98 µM (inactive)"}, {"measurement": "GI50", "setting": "UACC-62", "result": "4.81 µM (inactive)"}, {"measurement": "GI50", "setting": "SN12C", "result": "6.97 µM (inactive)"}, {"measurement": "GI50", "setting": "M14", "result": "14.2 µM (inactive)"}, {"measurement": "GI50", "setting": "K562", "result": "4.45 µM (inactive)"}, {"measurement": "GI50", "setting": "DU-145", "result": "9.35 µM (inactive)"}, {"measurement": "GI50", "setting": "OVCAR-3", "result": "4.51 µM (inactive)"}, {"measurement": "GI50", "setting": "SF-539", "result": "10.1 µM (inactive)"}, {"measurement": "GI50", "setting": "ACHN", "result": "3.5 µM (inactive)"}, {"measurement": "GI50", "setting": "EKVX", "result": "5.12 µM (inactive)"}, {"measurement": "GI50", "setting": "A498", "result": "6.78 µM (inactive)"}, {"measurement": "GI50", "setting": "SNB-75", "result": "12.7 µM (inactive)"}, {"measurement": "GI50", "setting": "CAKI-1", "result": "5.83 µM (inactive)"}, {"measurement": "GI50", "setting": "MDA-MB-435", "result": "6.22 µM (inactive)"}, {"measurement": "GI50", "setting": "SK-MEL-5", "result": "3.18 µM (inactive)"}, {"measurement": "GI50", "setting": "MCF7", "result": "9.95 µM (inactive)"}, {"measurement": "GI50", "setting": "T47D", "result": "13.6 µM (inactive)"}, {"measurement": "GI50", "setting": "RXF 393", "result": "16.8 µM (inactive)"}, {"measurement": "GI50", "setting": "OVCAR-8", "result": "3.49 µM (inactive)"}, {"measurement": "GI50", "setting": "HCT-15", "result": 3.77, "unit": "µM"}, {"measurement": "GI50", "setting": "RPMI-8226", "result": "17.4 µM (inactive)"}, {"measurement": "GI50", "setting": "LOX IMVI", "result": "4.78 µM (inactive)"}, {"measurement": "GI50", "setting": "SW-620", "result": "5.98 µM (inactive)"}, {"measurement": "GI50", "setting": "HL-60", "result": "1 µM (active)"}, {"measurement": "GI50", "setting": "UACC-257", "result": "10.1 µM (inactive)"}, {"measurement": "GI50", "setting": "BT-549", "result": "8.09 µM (inactive)"}, {"measurement": "GI50", "setting": "NCI-H460", "result": "3.92 µM (inactive)"}, {"measurement": "GI50", "setting": "NCI/ADR-RES", "result": "2.55 µM (inactive)"}, {"measurement": "GI50", "setting": "Hs-578T", "result": "5.31 µM (inactive)"}, {"measurement": "GI50", "setting": "HOP-92", "result": "9.31 µM (inactive)"}, {"measurement": "GI50", "setting": "NCI-H226", "result": "5.3 µM (inactive)"}, {"measurement": "GI50", "setting": "786-0", "result": "5.65 µM (inactive)"}, {"measurement": "GI50", "setting": "UO-31", "result": "4.45 µM (inactive)"}, {"measurement": "GI50", "setting": "HT-29", "result": "4.74 µM (inactive)"}, {"measurement": "GI50", "setting": "COLO 205", "result": "2.9 µM (inactive)"}, {"measurement": "GI50", "setting": "IGROV-1", "result": "4.54 µM (inactive)"}, {"measurement": "GI50", "setting": "MDA-N", "result": "10.6 µM (inactive)"}, {"measurement": "GI50", "setting": "SK-MEL-2", "result": "8.75 µM (inactive)"}, {"measurement": "GI50", "setting": "SK-MEL-28", "result": "17.6 µM (inactive)"}, {"measurement": "GI50", "setting": "KM12", "result": "4.16 µM (inactive)"}, {"measurement": "GI50", "setting": "U-251", "result": "8.49 µM (inactive)"}, {"measurement": "GI50", "setting": "Malme-3M", "result": "7.6 µM (inactive)"}]}
